In patent US10093678B2, “Azaspiro derivatives as TRPM8 antagonists” (RaQualia Pharma Inc., priority 2014, dated 2018):

target: T1, human TRPM8 (Homo sapiens, UniProt Q7Z2W7); assay: Menthol-induced Ca2+ influx in HEK293 cells stably expressing human TRPM8; assay type: cell-based; details: 30 microM menthol-induced Ca2+ influx, read-out: IC50 against TRPM8
T1 construct: expressed in transfected cells; host or cells: HEK293
Method in brief: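 HEK293 cells stably expressing human TRPM8 were loaded with Fluo4-AM for 1 h at room temperature, preincubated 5 min with compound, then challenged with 30 microM menthol. Calcium rise was read by FDSS imaging. IC50 came from 11-point curves using duplicate-well means.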

T1 sequence (Q7Z2W7 whole entry): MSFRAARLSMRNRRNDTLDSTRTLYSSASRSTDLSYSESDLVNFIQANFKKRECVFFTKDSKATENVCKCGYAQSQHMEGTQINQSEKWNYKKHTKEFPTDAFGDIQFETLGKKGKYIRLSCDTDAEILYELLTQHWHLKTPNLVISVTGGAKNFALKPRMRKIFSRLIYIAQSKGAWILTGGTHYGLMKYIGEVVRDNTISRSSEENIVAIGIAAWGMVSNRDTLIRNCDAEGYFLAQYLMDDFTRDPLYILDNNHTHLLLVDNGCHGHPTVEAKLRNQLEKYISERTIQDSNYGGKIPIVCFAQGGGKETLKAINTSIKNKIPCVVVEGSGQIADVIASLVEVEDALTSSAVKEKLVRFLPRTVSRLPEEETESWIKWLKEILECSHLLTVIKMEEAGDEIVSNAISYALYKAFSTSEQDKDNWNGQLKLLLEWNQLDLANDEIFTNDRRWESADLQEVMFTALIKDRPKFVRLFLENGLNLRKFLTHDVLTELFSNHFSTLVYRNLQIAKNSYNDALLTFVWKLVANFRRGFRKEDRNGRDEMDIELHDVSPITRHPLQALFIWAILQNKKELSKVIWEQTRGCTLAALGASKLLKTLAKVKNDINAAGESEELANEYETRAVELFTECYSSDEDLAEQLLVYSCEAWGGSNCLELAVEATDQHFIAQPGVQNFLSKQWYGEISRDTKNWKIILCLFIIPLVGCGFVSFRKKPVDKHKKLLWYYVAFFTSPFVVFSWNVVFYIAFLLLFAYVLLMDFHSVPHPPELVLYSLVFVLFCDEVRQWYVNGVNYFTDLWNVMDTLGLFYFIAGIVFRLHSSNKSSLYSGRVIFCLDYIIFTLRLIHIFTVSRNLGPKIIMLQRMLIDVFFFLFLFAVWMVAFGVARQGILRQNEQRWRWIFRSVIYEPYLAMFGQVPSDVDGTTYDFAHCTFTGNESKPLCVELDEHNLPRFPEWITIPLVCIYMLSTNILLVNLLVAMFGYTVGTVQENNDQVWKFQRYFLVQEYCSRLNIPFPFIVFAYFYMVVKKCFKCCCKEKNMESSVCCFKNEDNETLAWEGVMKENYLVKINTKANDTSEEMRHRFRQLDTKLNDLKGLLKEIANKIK

IC50 | Compound
< 100 nM | Cc1cc(C(=O)CN2C(=O)NC3(CCC(F)(F)CC3)C2=O)n(C)c1-c1ccccc1F [Example 16-13]
< 100 nM | COc1cccc(-c2c(C)cc(C(=O)CN3C(=O)NC4(CCC(F)(F)CC4)C3=O)n2C)c1 [Example 16-14]
< 100 nM | Cc1cc(C(=O)CN2C(=O)NC3(CCC(F)(F)CC3)C2=O)n(C)c1-c1cccc2ccncc12 [Example 16-15]
< 100 nM | Cc1cc(C(=O)CN2C(=O)NC3(CCC(F)(F)CC3)C2=O)n(C)c1-c1cncnc1 [Example 16-16]
< 100 nM | Cc1cc(C(=O)CN2C(=O)NC3(CCC(F)(F)CC3)C2=O)n(C)c1-c1cccc2c1CNC2=O [Example 16-17]
< 100 nM | Cc1cccc(-c2c(C)cc(C(=O)CN3C(=O)NC4(CCC(F)(F)CC4)C3=O)n2C)c1 [Example 16-18]
< 100 nM | Cc1ccccc1-c1c(C)cc(C(=O)CN2C(=O)NC3(CCC(F)(F)CC3)C2=O)n1C [Example 16-19]
< 100 nM | CC(=O)c1cccc(-c2c(C)cc(C(=O)CN3C(=O)NC4(CCC(F)(F)CC4)C3=O)n2C)c1 [Example 16-20]
< 100 nM | Cc1cc(C(=O)CN2C(=O)NC3(CCC(F)(F)CC3)C2=O)n(C)c1-c1cncc(F)c1 [Example 16-21]
< 100 nM | Cc1c(C(=O)CN2C(=O)NC3(CCC(F)(F)CC3)C2=O)cn(C)c1-c1cccc(C#N)c1 [Example 16-22]
< 100 nM | Cc1c(C(=O)CN2C(=O)NC3(CCC(F)(F)CC3)C2=O)cn(C)c1-c1cncc(F)c1 [Example 16-23]
< 100 nM | Cc1c(C(=O)CN2C(=O)NC3(CCC(F)(F)CC3)C2=O)cn(C)c1-c1cccc(F)c1 [Example 16-24]
< 100 nM | Cc1c(C(=O)CN2C(=O)NC3(CCC(F)(F)CC3)C2=O)cn(C)c1-c1ccccc1C#N [Example 16-25]
< 500 nM | Cc1c(C(=O)CN2C(=O)NC3(CCC(F)(F)CC3)C2=O)cn(C)c1-c1cccnc1 [Example 16-26]
< 100 nM | Cc1c(C(=O)CN2C(=O)NC3(CCC(F)(F)CC3)C2=O)cn(C)c1-c1cccc2ccncc12 [Example 16-27]
< 500 nM | Cc1ncccc1-c1c(C)c(C(=O)CN2C(=O)NC3(CCC(F)(F)CC3)C2=O)cn1C [Example 16-28]
< 500 nM | Cn1c(C(=O)CN2C(=O)NC3(CCC(F)(F)CC3)C2=O)ccc1-c1ccccc1C#N [Example 16-29]
< 500 nM | Cn1c(C(=O)CN2C(=O)NC3(CCC(F)(F)CC3)C2=O)ccc1-c1ccccc1CO [Example 16-30]
< 500 nM | Cn1c(C(=O)CN2C(=O)NC3(CCC(F)(F)CC3)C2=O)ccc1-c1cncc(F)c1 [Example 16-31]
< 500 nM | Cc1ccccc1-c1ccc(C(=O)CN2C(=O)NC3(CCC(F)(F)CC3)C2=O)n1C [Example 16-32]
< 500 nM | Cc1cc(C(=O)CN2C(=O)NC3(CCC(F)(F)CC3)C2=O)n(C)c1-c1cncc(C(N)=O)c1 [Example 16-33]
< 500 nM | Cc1c(C(=O)CN2C(=O)NC3(CCC(F)(F)CC3)C2=O)cn(C)c1-c1ccccc1CO [Example 16-34]
< 500 nM | Cc1cc(C(=O)CN2C(=O)NC3(CCC(F)(F)CC3)C2=O)n(C)c1-c1cccc2[nH]ncc12 [Example 16-35]
< 100 nM | Cn1c(-c2cccc(F)c2)cnc1C(=O)CN1C(=O)NC2(CCC(F)(F)CC2)C1=O [Example 17-1]
< 100 nM | Cn1c(-c2cccc3ccncc23)cnc1C(=O)CN1C(=O)NC2(CCC(F)(F)CC2)C1=O [Example 17-2]

IC50 | Compound
< 100 nM | Cn1c(-c2cccc(C#N)c2)cnc1C(=O)CN1C(=O)NC2(CCC(F)(F)CC2)C1=O [Example 17-3]
< 100 nM | Cn1c(C(=O)CN2C(=O)NC3(CCC(F)(F)CC3)C2=O)nc(C2CC2)c1-c1ccccc1 [Example 17-4]
< 100 nM | Cn1c(C(=O)CN2C(=O)NC3(CCC(F)(F)CC3)C2=O)nc(C2CC2)c1-c1cccnc1 [Example 17-5]
< 10 nM | Cc1nc(C(=O)CN2C(=O)NC3(CCC(F)(F)CC3)C2=O)n(C)c1-c1cccc(F)c1 [Example 17-6]
< 100 nM | Cc1nc(C(=O)CN2C(=O)NC3(CCC(F)(F)CC3)C2=O)n(C)c1-c1ccccc1 [Example 17-7]
< 100 nM | Cc1nc(C(=O)CN2C(=O)NC3(CCC(F)(F)CC3)C2=O)n(C)c1-c1cccc(C#N)c1 [Example 17-8]
< 100 nM | Cc1nc(C(=O)CN2C(=O)NC3(CCC(F)(F)CC3)C2=O)n(C)c1-c1cccc2ccncc12 [Example 17-9]
< 100 nM | Cc1nc(C(=O)CN2C(=O)NC3(CCC(F)(F)CC3)C2=O)n(C)c1-c1ccccc1CO [Example 17-10]
< 100 nM | Cc1nc(C(=O)CN2C(=O)NC3(CCC(F)(F)CC3)C2=O)n(C)c1-c1cc(F)cc(F)c1 [Example 17-11]
< 500 nM | Cc1nc(C(=O)CN2C(=O)NC3(CCC(F)(F)CC3)C2=O)n(C)c1-c1cccnc1 [Example 17-12]
< 500 nM | Cc1ncccc1-c1c(C)nc(C(=O)CN2C(=O)NC3(CCC(F)(F)CC3)C2=O)n1C [Example 17-13]
< 500 nM | Cc1cccc(-c2cnc(C(=O)CN3C(=O)NC4(CCC(F)(F)CC4)C3=O)n2C)c1 [Example 17-14]
< 500 nM | Cn1c(-c2cccnc2)cnc1C(=O)CN1C(=O)NC2(CCC(F)(F)CC2)C1=O [Example 17-15]
< 100 nM | Cc1nc(C(=O)CN2C(=O)NC3(CCC(F)(F)CC3)C2=O)sc1-c1cccnc1 [Example 18-1]
< 10 nM | Cc1ccncc1-c1sc(C(=O)CN2C(=O)NC3(CCC(F)(F)CC3)C2=O)nc1C [Example 18-2]
< 100 nM | Cc1nc(C(=O)CN2C(=O)NC3(CCC(F)(F)CC3)C2=O)sc1-c1cccc(C#N)c1 [Example 18-3]
< 100 nM | Cc1nc(C(=O)CN2C(=O)NC3(CCC(F)(F)CC3)C2=O)sc1-c1ccccc1CO [Example 18-4]
< 100 nM | Cc1nc(C(=O)CN2C(=O)NC3(CCC(F)(F)CC3)C2=O)sc1-c1cccc(F)c1 [Example 18-5]
< 100 nM | Cc1nc(C(=O)CN2C(=O)NC3(CCC(F)(F)CC3)C2=O)sc1-c1ccccc1C#N [Example 18-6]
< 500 nM | Cc1nc(C(=O)CN2C(=O)NC3(CCC(F)(F)CC3)C2=O)sc1-c1cccc(C(N)=O)c1 [Example 18-7]
< 500 nM | Cc1ncccc1-c1sc(C(=O)CN2C(=O)NC3(CCC(F)(F)CC3)C2=O)nc1C [Example 18-8]
< 100 nM | Cc1nc(C(=O)CN2C(=O)NC3(CCC(F)(F)CC3)C2=O)sc1-c1cncc(F)c1 [Example 18-9]
< 100 nM | Cc1nc(C(=O)CN2C(=O)NC3(CCC(F)(F)CC3)C2=O)sc1-c1cccc2ccncc12 [Example 18-10]
< 100 nM | Cc1nc(C(=O)CN2C(=O)NC3(CCC(F)(F)CC3)C2=O)sc1-c1cc(F)cc(F)c1 [Example 18-11]
< 500 nM | Cc1nc(C(=O)CN2C(=O)NC3(CCC(F)(F)CC3)C2=O)sc1-c1cccc2c1CNC2=O [Example 18-12]

IC50 | Compound
< 500 nM | Cc1nc(C(=O)CN2C(=O)NC3(CCC(F)(F)CC3)C2=O)sc1-c1cncc(C#N)c1 [Example 18-13]
< 100 nM | Cc1cccc(N(C)c2ccc(C(=O)CN3C(=O)NC4(CCCCC4)C3=O)cn2)c1 [Example 19-1, 3-(2-(6-(methyl(m-tolyl)amino)pyridin-3-yl)-2-oxoethyl)-1,3-diazaspiro[4.5]decane-2,4-dione]
< 100 nM | CN(c1ccccn1)c1ccc(C(=O)CN2C(=O)NC3(CCCCC3)C2=O)cn1 [Example 19-2]
< 100 nM | CCN(c1ccccc1)c1ccc(C(=O)CN2C(=O)NC3(CCCCC3)C2=O)cn1 [Example 19-3]
< 100 nM | CN(c1cccnc1)c1ccc(C(=O)CN2C(=O)NC3(CCCCC3)C2=O)cn1 [Example 19-4]
< 100 nM | CN(c1ccccc1)c1ccc(C(=O)CN2C(=O)NC3(CCCCC3)C2=O)cn1 [Example 19-5]
< 100 nM | CN(c1ccccn1)c1ccc(C(=O)CN2C(=O)NC3(CCC(F)(F)CC3)C2=O)cn1 [Example 19-6]
< 100 nM | O=C(CN1C(=O)NC2(CCC(F)(F)CC2)C1=O)c1ccc(N2CCOc3ccccc32)nc1 [Example 19-7]
< 100 nM | O=C(CN1C(=O)NC2(CCC(F)(F)CC2)C1=O)c1ccc(-n2ccc3ccncc32)nc1 [Example 19-8]
< 100 nM | CN(c1ccccc1)c1ccc(C(=O)CN2C(=O)NC3(CCC(F)(F)CC3)C2=O)cn1 [Example 19-9]
< 100 nM | O=C(CN1C(=O)NC2(CCC(F)(F)CC2)C1=O)c1ccc(-n2ccc3cccnc32)nc1 [Example 19-10]
< 100 nM | O=C(CN1C(=O)NC2(CCC(F)(F)CC2)C1=O)c1ccc(N2CCCc3ccccc32)nc1 [Example 19-11]
< 100 nM | Cc1cc2ccccc2n1-c1ccc(C(=O)CN2C(=O)NC3(CCC(F)(F)CC3)C2=O)cn1 [Example 19-12]
< 100 nM | O=C(CN1C(=O)NC2(CCC(F)(F)CC2)C1=O)c1ccc(N2C(=O)COc3ccccc32)nc1 [Example 19-13]
< 10 nM | O=C(CN1C(=O)NC2(CCC(F)(F)CC2)C1=O)c1ccc(-n2c(=O)oc3ccccc32)nc1 [Example 19-14]
< 500 nM | CN(c1cccc(C(F)(F)F)c1)c1ccc(C(=O)CN2C(=O)NC3(CCC(F)(F)CC3)C2=O)cn1 [Example 19-15]
< 100 nM | CN(c1ccc(C(=O)CN2C(=O)NC3(CCC(F)(F)CC3)C2=O)cc1)c1ccccn1 [Example 19-16]
< 100 nM | O=C(CN1C(=O)NC2(CCC(F)(F)CC2)C1=O)c1ccc(-n2ccc3cccnc32)cc1 [Example 19-17]
< 100 nM | O=C(CN1C(=O)NC2(CCC(F)(F)CC2)C1=O)c1ccc(-n2ccc3ccccc32)cc1 [Example 19-18]
< 500 nM | Cc1cc2ccccc2n1-c1ccc(C(=O)CN2C(=O)NC3(CCC(F)(F)CC3)C2=O)cc1 [Example 19-19]
< 100 nM | O=C(CN1C(=O)NC2(CCC(F)(F)CC2)C1=O)c1ccc(N2CCOc3ccccc32)cc1 [Example 19-20]
< 100 nM | O=C(CN1C(=O)NC2(CCC(F)(F)CC2)C1=O)c1ccc(N2C(=O)COc3ccccc32)cc1 [Example 19-21]
< 100 nM | O=C(CN1C(=O)NC2(CCC(F)(F)CC2)C1=O)c1ccc(-n2c(=O)[nH]c3ccccc32)cc1 [Example 19-22]
